# Test results published in US20240293490A1, “CHRYSANTHEMUM ZAWADSKII EXTRACT AND PREPARING METHOD THEREOF” (GREEN CROSS WELLBEING CORPORATION, priority 2023, published 2024).
# “And” between values parts separate entries of the source, which are not always exact repeats. Identical values can stand only once.
# Tests used:
# [1] = tested on: male ICR mice; assay: Acetic acid writhing test, analgesic efficacy (peripheral nerves); type: in vivo, mouse; details: G2, 60 mg/kg oral
# Experimental: The experimental method used in this example is the “Acetic acid writhing test” described in the “Guidelines for efficacy test of herbal preparations—General efficacy tests for painful diseases” announced by the Ministry of Food and Drug Safety, wherein acetic acid is administered intraperitoneally to cause damage of capillaries and pain in the abdominal cavity, and the analgesic effect in peripheral nerves is measured using the abdominal contractile response as an index.
# (§1) 1) Celebrex (Celecoxib, Pfizer, 200 mg), acetic acid (Daejunghwageum), Saline (Chungwae Pharmaceutical), Chrysanthemum extract (Green Cross HS) and male ICR mice (5 weeks old, Orient Bio) were prepared. In this example, the Chrysanthemum extract was extracted by the organic solvent extraction method described in the above preparative example wherein it was extracted using 70% ethanol.
# (§2) 2) 60 mg/kg of Celebrex and 50, 100 and 200 mg/kg of Chrysanthemum extracts were prepared and orally administered to ICR mice. At this time, Celebrex is converted into administration concentration and suspended in saline while vortexing, and Chrysanthemum extract is suspended in 0.5% CMC and sonicated at 20 to 25° C. for about 10 minutes.
# For the experimental method for analgesic effects to the acetic acid writhing test, as the experimental animals, 4-week-old male ICR mice were purchased, acclimatized for 1 week, and then tested. The Chrysanthemum extract and control drug, respectively, were orally administered to mice by dose, followed by intraperitoneal injection of acetic acid (0.7% acetic acid-physiological saline (0.1 ml/10 g B.W.)) 30 minutes after administration. Subsequently, from 5 minutes after injection, the number of occurrences of writhing was measured for 10 minutes (FIG. 3).
# Subsequently, from 5 minutes after the intraperitoneal administration, the number of occurrences of writhing syndrome was counted for 10 minutes and results thereof are shown in FIG. 10 and Table 14.
# [2] = tested on: male ICR mice; assay: Hot plate test, analgesic efficacy (central nervous system); type: in vivo, mouse; details: G2, 60 mg/kg oral
# Experimental: The experimental method used in this example is an analgesic efficacy experiment method using a hot plate test described in the “Guidelines for efficacy test of herbal preparations—General efficacy tests for painful diseases” announced by the Ministry of Food and Drug Safety, wherein the analgesic effect in the central nervous system of a mouse is measured with a response time to a heat stimulus as an index through a hot plate. At this time, the response time to the heat stimulus is measured as a time elapsed until the experimental animal licks the paw or jumps.
# as §1, with “mg),” for “mg), acetic acid (Daejunghwageum),”, “(6” for “(5”, “old, weight 30-35 g,” for “old,”
# as §2, with “mice, respectively.” for “mice.”
# According to the efficacy experimental method using the hot plate test method, as the experimental animals, 5-week-old male ICR mice were purchased, acclimatized for 1 week, and then tested. The hot plate was maintained at 55° C., and drug administration was performed 30 minutes before this method. The central pain response due to heat was measured with an index, i.e., the time elapsed until the mouse licks the hind paw or jumps starting from contacting with the hot plate.
# Then, the pain response due to heat was measured with an index, i.e., the time elapsed until the mouse licks the hind paw or jumps starting from contacting with the hot plate.
compound,measurement,setting,value
Cc1ccc(-c2cc(C(F)(F)F)nn2-c2ccc(S(N)(=O)=O)cc2)cc1 [Celecoxib],"Writhing syndrome/10 min, individual mouse","[1]; 0.7% acetic acid i.p. 30 minutes after administration, mice 1-6",9.00 /10 min and 6.00 /10 min and 15.00 /10 min and 14.00 /10 min and 25.00 /10 min and 18.00 /10 min
same,"Writhing syndrome/10 min, mean","[1]; n=6, control mean 28.33",14.50 /10 min
same,inhibition at 60 mg/kg,"[1]; Mus musculus, read-out: Writhing syndrome, % of control (inhibition rate, reduction compared to control)",48.9%
same,"Response time, % of control (increase rate)",[2],53.9%
same,"Response time, individual mouse","[2]; hot plate 55° C., mice 1-8",26.94 s and 27.82 s and 35.55 s and 36.22 s and 28.54 s and 33.71 s and 32.71 s and 25.61 s
same,"Response time, mean","[2]; n=8, control mean 20.07",30.89 s
